Experimental data reported in patent US10077261B2, “Imidazolin-5-one derivative useful as FASN inhibitors for the treatment of cancer” (Janssen Pharmaceutica NV, priority 2012, dated 2018).

Key:
[1] = biological target: T1, hFASN enzyme (full length) (Homo sapiens, UniProt P49327); test: Fatty Acid Synthase (FASN) inhibition scintillation proximity assay; type: biochemical; conditions: for inhibition at 10 µM: read-out: Human FASN % inhibition @ 10 μM, 10 μM test compound; for IC50: read-out: Human FASN pIC50 (converted)
T1 construct: 10 μL hFASN enzyme (full length, 300 ng, purified in house); made in house
How it was run: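 Proximity read-out: hydrophobic ^3H-palmitate formed from ^3H-acetyl-CoA and malonyl-CoA binds streptavidin imaging beads, imaged at 610±20 nm at least 24 h after stopping. Enzyme was in-house purified full-length hFASN, 300 ng, in pH 7.5 phosphate/DTT buffer; compound series 30 μM down to 0.01 μM, normalized to controls, 4-parameter fit.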

A2780 ovarian cells [2] = test: A2780 ovarian cell proliferation assay in lipid reduced medium, without palmitate (MTT); type: cell-based; conditions: Homo sapiens, A2780, 96 h; read-out: pIC50 A2780 Ovarian Cell, Without Palmitate (converted)
Protocol: (§1) The biological assays described below correspond to comparative assays for ovarian cell proliferation. […] Compounds active in the absence of palmitate would not be expected to be active in the control.
(§2) 2500 cells were seeded in a 96-well clear well plate in 200 μL RPMI1640 with 10% Fetal Calf Serum (Hyclone), and incubated at 37° C., 5% CO2. Blanks were wells without cells. The next day the culture medium was aspirated and replaced by 160 μL culture medium with 10% Lipid-Reduced Serum (LRS, Hyclone). 20 μL test compound (at concentrations of 30 μM, 10 μM, 3 μM, 1 μM, 0.30 μM, 0.10 μM, 0.03 μM and 0.01 μM)/DMSO dilution followed by 20 μL ethanol-BSA solution were added to a final concentrations of 0.2% DMSO, 0.2% fatty-acid-free BSA, 0.25% ethanol. After 96 h incubation an MTT assay was performed. The absorbance was measured at 544 nm on a SPECTRAMAX brand microplate reader (Molecular Devices).
where mLC and mHC were the means of the low control wells and high control wells on the plate, after manual exclusion of outliers. A plot of Controlmin versus test compound concentration was fitted to a 4-parameter logistic curve using a non-linear least squares regression method.
(§3) Representative compounds of the present invention were tested according to the procedure as described in Biological Example 3 above, with results as listed in Table 8, below.

A2780 ovarian cells [3] = test: A2780 ovarian cell proliferation assay in lipid reduced medium, with palmitate (MTT); type: cell-based; conditions: Homo sapiens, A2780, 96 h; read-out: pIC50 A2780 Ovarian Cell, With Palmitate (converted)
Protocol: as §1
as §2, with “palmitate-BSA” for “ethanol-BSA”, “DMSO, 25 μM palmitate (Sigma, P0500, 10 mM stock solution in ethanol)” for “DMSO,”, “incubation,” for “incubation”
A best fit curve was fitted by a minimum sum of squares method, plotting Controlmin versus test compound concentration.
as §3

T1 sequence (P49327 whole entry): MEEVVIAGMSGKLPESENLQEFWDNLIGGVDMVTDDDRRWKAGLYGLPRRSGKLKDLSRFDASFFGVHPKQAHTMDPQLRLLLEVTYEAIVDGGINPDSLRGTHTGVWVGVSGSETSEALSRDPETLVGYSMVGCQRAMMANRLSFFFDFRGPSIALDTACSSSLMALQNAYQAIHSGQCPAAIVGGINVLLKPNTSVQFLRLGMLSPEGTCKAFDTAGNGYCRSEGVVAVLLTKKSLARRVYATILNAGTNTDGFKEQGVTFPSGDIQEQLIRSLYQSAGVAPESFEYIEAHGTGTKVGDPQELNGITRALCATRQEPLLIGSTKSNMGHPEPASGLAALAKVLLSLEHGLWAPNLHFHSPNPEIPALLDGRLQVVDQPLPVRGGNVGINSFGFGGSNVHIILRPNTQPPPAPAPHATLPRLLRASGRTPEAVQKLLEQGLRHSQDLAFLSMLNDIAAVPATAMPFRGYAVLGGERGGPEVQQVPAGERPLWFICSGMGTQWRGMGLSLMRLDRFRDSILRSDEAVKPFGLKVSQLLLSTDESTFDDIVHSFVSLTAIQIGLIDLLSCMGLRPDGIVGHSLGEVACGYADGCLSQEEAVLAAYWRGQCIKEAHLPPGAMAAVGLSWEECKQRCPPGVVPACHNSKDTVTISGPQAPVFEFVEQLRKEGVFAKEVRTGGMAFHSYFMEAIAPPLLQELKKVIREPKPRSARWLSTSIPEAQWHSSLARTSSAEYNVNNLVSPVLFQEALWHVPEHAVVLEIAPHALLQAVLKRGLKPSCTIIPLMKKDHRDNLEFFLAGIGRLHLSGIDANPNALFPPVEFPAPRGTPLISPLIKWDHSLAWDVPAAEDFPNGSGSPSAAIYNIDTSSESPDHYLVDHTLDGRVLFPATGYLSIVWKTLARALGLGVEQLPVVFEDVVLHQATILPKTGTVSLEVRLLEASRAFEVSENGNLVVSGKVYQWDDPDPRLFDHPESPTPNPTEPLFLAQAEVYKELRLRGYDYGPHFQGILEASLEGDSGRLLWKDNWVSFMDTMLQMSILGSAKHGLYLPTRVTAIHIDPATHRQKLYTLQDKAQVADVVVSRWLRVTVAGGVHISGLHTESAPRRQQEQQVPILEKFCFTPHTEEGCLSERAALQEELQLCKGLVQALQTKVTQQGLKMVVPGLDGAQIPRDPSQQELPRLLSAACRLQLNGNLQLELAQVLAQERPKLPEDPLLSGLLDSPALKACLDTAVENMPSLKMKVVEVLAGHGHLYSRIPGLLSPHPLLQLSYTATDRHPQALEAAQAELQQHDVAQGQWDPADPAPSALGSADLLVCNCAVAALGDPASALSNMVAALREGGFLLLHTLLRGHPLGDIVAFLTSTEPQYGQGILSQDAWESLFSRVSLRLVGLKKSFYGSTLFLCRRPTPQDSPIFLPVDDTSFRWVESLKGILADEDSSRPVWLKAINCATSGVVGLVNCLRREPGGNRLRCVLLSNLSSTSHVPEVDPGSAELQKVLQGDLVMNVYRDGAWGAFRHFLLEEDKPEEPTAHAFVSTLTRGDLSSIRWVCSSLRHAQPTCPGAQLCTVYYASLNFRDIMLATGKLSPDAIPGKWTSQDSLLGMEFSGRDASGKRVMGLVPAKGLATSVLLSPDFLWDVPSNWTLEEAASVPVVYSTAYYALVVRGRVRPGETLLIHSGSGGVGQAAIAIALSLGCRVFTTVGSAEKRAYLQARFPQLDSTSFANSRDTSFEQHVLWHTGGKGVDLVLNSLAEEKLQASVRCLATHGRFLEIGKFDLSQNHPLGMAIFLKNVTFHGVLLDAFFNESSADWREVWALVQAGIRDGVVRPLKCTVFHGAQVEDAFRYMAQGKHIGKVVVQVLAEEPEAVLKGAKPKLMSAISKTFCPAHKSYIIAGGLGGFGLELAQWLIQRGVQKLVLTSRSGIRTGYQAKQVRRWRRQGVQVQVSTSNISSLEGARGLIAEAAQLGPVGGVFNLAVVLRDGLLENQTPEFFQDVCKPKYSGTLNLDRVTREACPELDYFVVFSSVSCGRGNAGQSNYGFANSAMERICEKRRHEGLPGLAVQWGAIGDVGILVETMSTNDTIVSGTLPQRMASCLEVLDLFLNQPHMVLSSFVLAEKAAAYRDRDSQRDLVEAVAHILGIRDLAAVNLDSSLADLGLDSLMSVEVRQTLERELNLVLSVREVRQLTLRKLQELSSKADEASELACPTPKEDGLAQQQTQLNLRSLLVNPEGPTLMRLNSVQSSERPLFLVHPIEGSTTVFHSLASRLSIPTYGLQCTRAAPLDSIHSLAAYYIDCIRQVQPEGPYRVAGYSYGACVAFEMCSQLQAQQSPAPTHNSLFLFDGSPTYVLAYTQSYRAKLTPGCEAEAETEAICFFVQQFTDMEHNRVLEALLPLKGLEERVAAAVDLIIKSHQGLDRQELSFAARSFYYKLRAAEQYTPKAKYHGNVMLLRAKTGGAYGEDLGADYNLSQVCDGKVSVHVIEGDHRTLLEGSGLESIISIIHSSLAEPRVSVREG

SMILES | inhibition at 10 µM [1] | IC50 [1] | IC50 (A2780 ovarian cells [2]) | IC50 (A2780 ovarian cells [3])
O=C(C1CC1)N1CC[C@@H](CN2C(=O)C3(CC3)N=C2c2ccc(-c3ccc(O)cc3)cc2)C1 [compound 64, 6-{[(3R)-1-(Cyclopropylcarbonyl)pyrrolidin-3-yl]methyl}-5-(4′-hydroxybiphenyl-4-yl)-4,6-diazaspiro[2.4]hept-4-en-7-one] | 92.9% | 708 nM | 631 nM | > 10 µM
O=C(C1CC1)N1CC(CN2C(=O)C3(CCCC3)N=C2c2ccc(-c3ccc4[nH]ccc4c3)cc2)C1 [compound 78, 3-{[1-(Cyclopropylcarbonyl)azetidin-3-yl]methyl}-2-[4-(1H-indol-5-yl)phenyl]-1,3-diazaspiro[4.4]non-1-en-4-one] | 111% | – | 148 nM | > 10 µM
CC1(C(=O)N2CC[C@@H](CN3C(=O)C4(CCCC4)N=C3c3ccc(-c4ccc5occc5c4)cc3)C2)CC1 [compound 116, (R)-2-(4-(Benzofuran-5-yl)phenyl)-3-((1-(1-methylcyclopropanecarbonyl)pyrrolidin-3-yl)methyl)-1,3-diazaspiro[4.4]non-1-en-4-one] | 121% | 28.2 nM | 35.5 nM | ~3.02 µM
O=C(N1CCCC1)N1CC[C@@H](CN2C(=O)C3(CCCC3)N=C2c2ccc(-c3ccc4occc4c3)cc2)C1 [compound 117, 2-[4-(1-Benzofuran-5-yl)phenyl]-3-{[(3S)-1-(pyrrolidin-1-ylcarbonyl)pyrrolidin-3-yl]methyl}-1,3-diazaspiro[4.4]non-1-en-4-one] | 108% | 204 nM | ~2400 nM | 9.12 µM
Cn1ccc(C(=O)N2CC[C@@H](CN3C(=O)C4(CCCC4)N=C3c3ccc(-c4ccc5occc5c4)cc3)C2)n1 [compound 118, 2-[4-(1-Benzofuran-5-yl)phenyl]-3-({(3R)-1-[(1-methyl-1H-pyrazol-3-yl)carbonyl]pyrrolidin-3-yl}methyl)-1,3-diazaspiro[4.4]non-1-en-4-one] | 101% | 355 nM | 1660 nM | > 10 µM
O=C(CC(F)(F)F)N1CC[C@@H](CN2C(=O)C3(CCCC3)N=C2c2ccc(-c3ccc4occc4c3)cc2)C1 [compound 119, 2-[4-(1-Benzofuran-5-yl)phenyl]-3-{[(3R)-1-(3,3,3-trifluoropropanoyl)pyrrolidin-3-yl]methyl}-1,3-diazaspiro[4.4]non-1-en-4-one] | 107% | 174 nM | ~2240 nM | 11 µM
O=C(C1CC1)N1CC[C@@H](CN2C(=O)C3(CCCC3)N=C2c2ccc(-c3ccc4occc4c3)cc2F)C1 [compound 120, 2-[4-(1-Benzofuran-5-yl)-2-fluorophenyl]-3-{[(3R)-1-(cyclopropylcarbonyl)pyrrolidin-3-yl]methyl}-1,3-diazaspiro[4.4]non-1-en-4-one] | 116% | 38.9 nM | ~759 nM | 5.01 µM
O=C(C1CC1)N1CC[C@@H](CN2C(=O)C3(CCCC3)N=C2c2ccc(-c3ccc(Cl)cc3)cc2F)C1 [compound 121, 2-(4′-Chloro-3-fluorobiphenyl-4-yl)-3-{[(3R)-1-(cyclopropylcarbonyl)pyrrolidin-3-yl]methyl}-1,3-diazaspiro[4.4]non-1-en-4-one] | 115% | 91.2 nM | 2190 nM | > 10 µM
O=C(C1CC1)N1CC[C@@H](CN2C(=O)C3(CC3)N=C2c2ccc(-c3ccc(-c4cccnc4)cc3)cc2)C1 [compound 122, 6-{[(3R)-1-(Cyclopropylcarbonyl)pyrrolidin-3-yl]methyl}-5-(4′-pyridin-3-ylbiphenyl-4-yl)-4,6-diazaspiro[2.4]hept-4-en-7-one] | 112% | 123 nM | 234 nM | ~10 µM
CN(C)c1ccc(-c2ccc(C3=NC4(CC4)C(=O)N3C[C@@H]3CCN(C(=O)C4CC4)C3)cc2)cc1 [compound 124, 6-{[(3R)-1-(Cyclopropylcarbonyl)pyrrolidin-3-yl]methyl}-5-[4′-(dimethylamino)biphenyl-4-yl]-4,6-diazaspiro[2.4]hept-4-en-7-one] | 113% | – | ~288 nM | > 10 µM
O=C(C1CC1)N1CC[C@@H](CN2C(=O)C3(CC3)N=C2c2ccc(-c3cccc(C(F)(F)F)c3)cc2)C1 [compound 126, 6-{[(3R)-1-(Cyclopropylcarbonyl)pyrrolidin-3-yl]methyl}-5-[3′-(trifluoromethyl)biphenyl-4-yl]-4,6-diazaspiro[2.4]hept-4-en-7-one] | 96.3% | 646 nM | > 10000 nM | > 10 µM
Cn1ncc2cc(-c3ccc(C4=NC5(CCN(CCO)CC5)C(=O)N4C[C@@H]4CCN(C(=O)C5CC5)C4)cc3)ccc21 [compound 127, (R)-3-((1-(Cyclopropanecarbonyl)pyrrolidin-3-yl)methyl)-8-(2-hydroxyethyl)-2-(4-(1-methyl-1H-indazol-5-yl)phenyl)-1,3,8-triazaspiro[4.5]dec-1-en-4-one] | 107% | 490 nM | 933 nM | 7.59 µM
O=C(C1CC1)N1CC[C@@H](CN2C(=O)C3(CCNCC3)N=C2c2ccc(-c3ccc4occc4c3)cc2)C1 [compound 133, 2-[4-(1-Benzofuran-5-yl)phenyl]-3-{[(3R)-1-(cyclopropylcarbonyl)pyrrolidin-3-yl]methyl}-1,3,8-triazaspiro[4.5]dec-1-en-4-one] | 99.1% | 447 nM | ~3160 nM | > 10 µM
O=C(C1CC1)N1CCC2(CC1)N=C(c1ccc(-c3ccc4occc4c3)cc1)N(CC1CN(C(=O)C3CC3)C1)C2=O [compound 134, 2-[4-(1-Benzofuran-5-yl)phenyl]-8-(cyclopropylcarbonyl)-3-{[1-(cyclopropylcarbonyl)azetidin-3-yl]methyl}-1,3,8-triazaspiro[4.5]dec-1-en-4-one] | 91.7% | 562 nM | 4470 nM | > 10 µM
O=C(C1CC1)N1CC[C@H](CN2C(=O)C3(CC3)N=C2c2ccc(-c3ccc4[nH]ncc4c3)cc2)C1 [compound 431, 6-{[(3S)-1-(Cyclopropylcarbonyl)pyrrolidin-3-yl]methyl}-5-[4-(1H-indazol-5-yl)phenyl]-4,6-diazaspiro[2.4]hept-4-en-7-one] | – | – | 204 nM | > 10 µM
Cc1cc(-c2ccc3c(c2)c(C#N)nn3C)ccc1C1=NC2(CC2)C(=O)N1CC1CN(C(=O)C2CC2)C1 [compound 836, 5-(4-(6-((1-(cyclopropanecarbonyl)azetidin-3-yl)methyl)-7-oxo-4,6-diazaspiro[2.4]hept-4-en-5-yl)-3-methylphenyl)-1-methyl-1H-indazole-3-carbonitrile] | – | – | 372 nM | > 3.02 µM
O=C(N1CC(CN2C(=O)C3(CC3)N=C2c2ccc(-c3ccc4c(cnn4CCO)c3)cc2F)C1)C1(O)CC1 [compound 837, 5-(2-fluoro-4-(1-(2-hydroxyethyl)-1H-indazol-5-yl)phenyl)-6-((1-(1-hydroxycyclopropanecarbonyl)azetidin-3-yl)methyl)-4,6-diazaspiro[2.4]hept-4-en-7-one] | – | – | 1230 nM | > 3.02 µM
O=C(C1CC1)N1CC(CN2C(=O)C3(CC3)N=C2c2ccc(-c3ccc4ccc(=O)[nH]c4c3)cc2)C1 [compound 840] | – | – | > 3020 nM | > 3.02 µM
N#CCCn1cc2cc(-c3ccc(C4=NC5(CC5)C(=O)N4CC4CN(C(=O)C5CC5)C4)cc3)ccc2n1 [compound 842, 3-(5-(4-(6-((1-(cyclopropanecarbonyl)azetidin-3-yl)methyl)-7-oxo-4,6-diazaspiro[2.4]hept-4-en-5-yl)phenyl)-2H-indazol-2-yl)propanenitrile] | – | – | > 3020 nM | > 3.02 µM
